# Assay results as given in patent US6043242A, “Imidazopyridazines” (Byk Gulden Lomberg Chemische Fabrik GmbH, priority 1996, dated 2000).
# Counter-ions that a name gives are not always drawn.
# Key:
# Helicobacter pylori = experiment: activity against Helicobacter pylori (MIC50), Columbia agar, growth period of 4 days; format: cell-based; settings: 96 h, approx. MIC 50 values, Columbia agar (Oxoid)
# From the text: The compounds of the formula I were investigated with respect to their activity against Helicobacter pylori following the methodology described by Tomoyuki Iwahi et al. (Antimicrobial Agents and Chemotherapy, 1991, 490-496) using Columbia agar (Oxoid) and with a growth period of 4 days. The approx. MIC 50 values listed in Table A below resulted here for the compounds investigated (the stated numbers of the compounds agree with the example numbers in the description).
# Helicobacter fells = experiment: in vivo activity against Helicobacter fells in the mouse (elimination rate); settings: po, 96 h, administered orally at 3×50 mg/kg over the course of 4 days
# Experimental: With respect to their in vivo activity against Helicobacter fells in the mouse, the compounds of the formula I were investigated following the methodology described by E. Dick-Hegedus and A. Lee (Scand. J. Gastroenterol. 1991, 26, 909-915). The substances were administered orally at 3×50 mg/kg over the course of 4 days. The elimination rates listed in Table A below resulted here for the compounds investigated: […]
Structure (SMILES),MIC50 (Helicobacter pylori) [µg/mL],responders at 50 mg/kg (Helicobacter fells) [%]
CN(CCSc1ccc2ncc([N+](=O)[O-])n2n1)c1ccnc(CSc2nc3ccccc3[nH]2)c1Cl [Compound 17],0.1,100
"Cc1c(SCCCSc2ccc3ncc([N+](=O)[O-])n3n2)ccnc1CO [Compound 1, {3-Methyl-4-[3-(3-nitroimidazo[1,2-b]pyridazin-6-ylsulfanyl)propylsulfanyl]pyridin-2-yl}methanol]",0.05,100
"CN(CCOc1ccc2ncc([N+](=O)[O-])n2n1)c1ccnc(CSc2nc3ccccc3[nH]2)c1Cl.Cl [Compound 27, [2-(1H-benzimidazol-2-ylsulfanylmethyl)-3-chloropyridin-4-yl]-methyl-[2-(3-nitroimidazo[1,2-b]pyridazin-6-yloxy)-ethyl]amine hydrochloride]",0.1,100
"Cc1c(OCCCOc2ccc3ncc([N+](=O)[O-])n3n2)cc[n+]([O-])c1C [Compound 13, 6-[3-(2,3-Dimethyl-1-oxypyridin-4-yloxy)propoxy]-3-nitroimidazo[1,2-b]pyridazine]",0.5,100
CN(CCSc1ccc2ncc([N+](=O)[O-])n2n1)c1ccnc(CSc2ncccn2)c1Cl [Compound 18],0.1,100

# Continued by falling MIC50 (Helicobacter pylori), values first:
MIC50 (Helicobacter pylori) [µg/mL],Structure (SMILES),responders at 50 mg/kg (Helicobacter fells) [%]
0.1,"Cc1c(SCCCSc2ccc3ncc([N+](=O)[O-])n3n2)ccnc1CSc1ncccn1 [Compound 4, 6-{3-[3-Methyl-2-(pyrimidin-2-ylsulfanylmethyl)-pyridin-4-ylsulfanyl]propyisulfanyl)3-nitro-imidazo[1,2-b]pyridazine]",100
0.1,"COCCOCCSCc1nccc(SCCCSc2ccc3ncc([N+](=O)[O-])n3n2)c1C [Compound 9, 6-(3-}2-[2-(2-Methoxyethoxy)ethylsulfanylmethyl]-3-methylpyridin-4-ylsulfanyl}-propylsulfanyl)-3-nitroimidazo[1,2-b]pyridazine fumarate]",100
0.05,"Cc1ccnc(SCc2nccc(SCCCSc3ccc4ncc([N+](=O)[O-])n4n3)c2C)n1 [Compound 25, 6-{3-[3-Methyl-2-(4-methyl-pyrimidin-2-ylsulfanylmethyl)-pyridin-4-ylsulfanyl]-propylsulfanyl}-3-nitroimidazo[1,2-b]pyridazine]",100
0.05,"Cc1c(OCCCSc2ccc3ncc([N+](=O)[O-])n3n2)ccnc1CO [Compound 15, {3-Methyl-4-[3-(3-nitroimidazo[1,2-b]pyridazin-6-ylsulfanyl)propoxy]pyridin-2-yl}-methanol]",100
